In patent US20230165183A1, “METHODS AND COMPOSITIONS FOR IMPROVED SEED GROWTH” (Cyprus University of Technology, priority 2021, published 2023):
Where two headings read alike, the source gives them in different places.

How the values were obtained:
Rice = conditions: cited from earlier work
Wheat [1] = conditions: cited from earlier work
Safflower = conditions: Drought; cited from earlier work
Maize [2] = conditions: cited from earlier work
Wheat [3] = conditions: Salt; cited from earlier work
Corn = conditions: Salt; cited from earlier work
Maize [4] = conditions: Salt; cited from earlier work
Pot Marigold = conditions: Salt; cited from earlier work
Milk Thistle = conditions: Salt; cited from earlier work
Sorghum = conditions: Drought; cited from earlier work
Chickpea = conditions: Drought; cited from earlier work
Pigeon Pea = conditions: Calcium; cited from earlier work
tomato seeds = assay: Germination percentage of primed/coated tomato seeds five days after sowing; assay type: in vivo; conditions: tomato seeds primed with melatonin (Mel 1=50 μM, Mel 2=100 μM), 5 DAS, vs unprimed seeds; p<0.05
Method: FIG. 4 depicts germination percentage five days after sowing (5 DAS) in tomato seeds coated (pre-treated) with melatonin concentrations (Mel 1=50 μM, Mel 2=100 μM) in comparison with unprimed seeds (non-treated) and hydrogel coated seeds (Hydro).
Tomato seeds were primed with melatonin at the following concentrations: 5 μM, 10 μM, 15 μM, 25 μM, 50 μM, 100 μM, 200 μM, and 300 μM. Priming was performed by soaking the seeds in the desired melatonin concentration, then vacuum-drying the seeds.
FIG. 4 depicts germination percentage five days after sowing (5 DAS) in tomato seeds coated pre-treated with melatonin concentrations (Mel 1=50 μM, Mel 2=100 μM) in comparison with unprimed seeds (Non-treated) and hydrogel coated seeds (Hydro).

O=C(O)c1ccccc1O [SA, salicyclic acid]
Plant Response to SA (Rice; Chilling): Enhanced antioxidant activity | Plant Response to SA (Rice; Chromium): Increased chlorophyll content | Plant Response to SA (Wheat [1]; Drought): Balanced nutrient uptake | Plant Response to SA (Wheat [1]; Osmotic): Increased tolerance | Plant Response to SA (Wheat [1]; Salinity): Decreased electrolyte leakage | Plant Response to SA (Safflower): Enhanced antioxidant activity | Plant Response to SA (Maize [2]; Chilling): Enhanced antioxidant activity | Plant Response to SA (Maize [2]; Lead): Increased nitric oxide content

gibberellin [GA]
Plant Response to GA (Wheat [3]): Increased tolerance | Plant Response to GA (Corn): Increased tissue water content | Plant Response to GA (Maize [4]): Alleviated salt stress | Plant Response to GA (Pot Marigold): Increased tolerance | Plant Response to GA (Milk Thistle): Alleviated salt stress | Plant Response to GA (Sorghum): Increased CAT and APX activities | Plant Response to GA (Chickpea): Increased relative water content | Plant Response to GA (Pigeon Pea): Increased germination

COc1ccc2[nH]cc(CCNC(C)=O)c2c1 [melatonin]
germination percentage (tomato seeds): significantly increased germination percentage
